The test system of test [1] is CFA-induced pain model. The test can be described thus: Antiallodynic activity on Complete Freund's Adjuvant (CFA)-induced inflammatory pain model (von Frey). In kind it is in vivo, Sprague-Dawley rats. The conditions noted are these: ip.
Test [2] deals with SNL model. The test can be described thus: Antiallodynic activity in the Chung model (SNL, Spinal Nerve Ligation; von Frey). In kind it is in vivo, Sprague-Dawley rats.
Test [3] concerns acetic acid-induced writhes. As to the kind of experiment: Writhing test (acetic acid). In kind it is in vivo, ICR mice. The procedure: To examine the pain relief effect of the sulfamate derivative compounds, a writhing test was referring to Fischer, L. G. et al. (2008).
ICR mice (male, 24-28 g; Orient Bio, Korea) were habituated before test in test room for 1 hour. Animals were fasted for 2 hr before administration of compounds. […] All compounds were dissolved in a vehicle of 30% (v/v) PEG 400 or 20% (v/v) Tween 80. The control group was treated with the vehicle without compounds.
[…] Animals were habituated in the cage for 5 min. 5 min after habituation, the number of writhes (abdominal constriction) was counted for 15 minutes referring to Korzeniewska-Rybicka, I. et al. (1998) and compared with that of the control.

[4] abbreviates: Rattus norvegicus, 0.5 h, read-out: CFA model: ED50 mg/kg.
[5] abbreviates: Rattus norvegicus, po, 1 h, read-out: SNL model: ED50 mg/kg.
[6] abbreviates: Mus musculus, po, 0.5 h, read-out: Writh test: ED50 mg/kg.

Each structure is given as a SMILES string. Where two headings read alike, the source gives them in different places.

As to `CC1(C)Oc2ccccc2[C@@H](COS(N)(=O)=O)O1` [Example 2, ((S)-2,2-dimethyl-4H-benzo[d][1,3]dioxin-4-yl)methyl sulfamate], the ED50 in test [1] (rat, intraperitoneal, 0.5 h, read-out: CFA model: ED50) was 18.8 mg/kg; in test [2] (rat, oral, 1 h, read-out: SNL model: ED50), 4.5 mg/kg; in test [3] (mouse, oral, 1 h, read-out: Writh test: ED50), 152 mg/kg.
For the molecule `CC1(C)Oc2ccccc2[C@H](COS([NH-])(=O)=O)O1.[Na+]` [Example 58, Sodium (R)-(((2,2-dimethyl-4H-benzo[d][1,3]dioxin-4-yl)methoxy)sulfonyl)amide Trihydrate], the figures for the ED50 in test [1] (setting [4]) and in test [2] (setting [5]) were 23.3 mg/kg and 8.9 mg/kg, respectively.
Take `CC1(C)Oc2ccccc2C(COS([NH-])(=O)=O)O1.[Na+]` (centres unmarked) [Example 60, Sodium (((2,2-dimethyl-4H-benzo[d][1,3]dioxin-4-yl)methoxy)sulfonyl)amide Trihydrate]: the ED50 was determined as 25 mg/kg in test [1] (Rattus norvegicus, 1 h, read-out: CFA model: ED50 mg/kg); 3.5 mg/kg in test [2] (setting [5]); 21 mg/kg in test [3] (setting [6]).
Consider `[NH-]S(=O)(=O)OC[C@H]1OC2(CCCC2)Oc2ccccc21.[Na+]` [Example 65, Sodium (S)-(((4H-spiro[benzo[d][1,3]dioxine-2,1′-cyclopentan]-4-yl)methoxy)sulfonyl)amide], for which the ED50 is 89.1 mg/kg in test [1] (setting [4]); 3.4 mg/kg in test [2] (Rattus norvegicus, po, 0.5 h, read-out: SNL model: ED50 mg/kg); 55.1 mg/kg in test [3] (setting [6]).
As to `CC1(C)Oc2ccccc2[C@H](COS([NH-])(=O)=O)O1.[K+]` [Example 70, Potassium (R)-(((2,2-dimethyl-4H-benzo[d][1,3]dioxin-4-yl)methoxy)sulfonyl)amide], in test [1] (Rattus norvegicus, 0.5 h, read-out: CFA model: effect (%) compared to control), the response vs control in vivo at 25 mg/kg worked out at 10.5%. Besides, the response vs control in vivo at 3.5 mg/kg in test [2] (Rattus norvegicus, po, 1 h, read-out: SNL model: effect (%) compared to control, rat, oral, 3.5 mg/kg administered, 1 h) is 46.7%. In addition, in test [3] (mouse, oral, 80 mg/kg administered, 1 hr), the “Writh test: effect (%) compared to control” value is “(29.1%, 1 hr)”.

The values above are taken from patent publication US10081615B2, “Sulfamate derivative compounds for use in treating or alleviating pain” (Bio-Pharm Solutions Co., Ltd., priority 2013, dated 2018).
